This assay relates to classical Hodgkin's Lymphoma patient. As to the kind of experiment: Case study: treatment of a classical Hodgkin's Lymphoma patient, response by CT/MRI scan and PET scan (Cheson criteria). The assay is classed as in vivo, human. The note with it: 150 mg orally 1 time a day, Cheson 2007 criteria. As for the experimental part: A classical Hodgkin's Lymphoma patient, diagnosed with Stage II in Hodgkin Lymphoma in January 2006, and previously treated with radiotherapy and three different regimens of chemotherapy, including an autologous stem cell transplantation was treated with 150 mg of the compound of formula (I), administered orally 1 time a day. In addition to the compound of formula (I), the patient was taking the following medications and dosages: (a) DEKRISTOL (cholecalciferol), 20000 I.U. QOD for vitamin deficiency, (b) methylphenidate hydrochloride, 20 mg DAILY for fatigue, (c) ibuprofen, 600 mg PRN for back pain, and (d) VALORON N (tilidine) 50 IN 20 DROPS PRN for back pain.
Response to treatment was evaluated by tumor assessments using CT/MRI scan and PET scan, resulting in an individual response for each technique. In addition, an overall response evaluation was completed, taking into account both scan results. Response evaluations were completed according to the criteria as set forth in CHESON, B. D., et al., J. Clin. Oncology, 2007, pp579-586, Vol. 25(5).

On to `CC1(C)CC=C(c2nc(C3CC(C)(C)OC(C)(C)C3)ccc2NC(=O)c2nc(C#N)c[nH]2)CC1` [compound of formula (I), 4-cyano-N-(2-(4,4-dimethylcyclohex-1-en-1-yl)-6-(2,2,6,6-tetramethyltetrahydro-2H-pyran-4-yl)pyridin-3-yl)-1H-imidazole-2-carboxamide], for which the “response status at later follow-up” value (as of 13 Mar. 2013) is recorded as “still in complete response”. Also, the “overall response to treatment” value (evaluated after 121 days of treatment, previously treated classical Hodgkin's Lymphoma patient) is recorded as “complete response to treatment”.

The record behind these values is patent publication US20160015700A1, “4-CYANO-N-(2-(4,4-DIMETHYLCYCLOHEX-1-EN-1-YL)-6-(2,2,6,6-TETRAMETHYLTETRAHYDRO-2H-PYRAN-4-YL)PYRIDIN-3-YL)-1H-IMIDAZOLE-2-CARBOXAMIDE FOR THE TREATMENT OF HODGKIN'S LYMPHOMA” (JANSSEN PHARMACEUTICA NV, priority 2013, published 2016).
